Experiment [1] concerns the target T1, GRP94 (Sus scrofa, UniProt Q29092).
T1 construct: GRP94 was purified from porcine pancreas rough microsomes; from tissue; host or cells: porcine pancreas rough microsomes (lumenal contents)
The experiment in a line: [3H]-NECA binding assay (vacuum filtration). Also noted: species or system porcine. The procedure: (§1) Where indicated, binding reactions were performed in either buffer C (10 mM Tris, pH 7.5, 50 mM KCl, 5 mM MgCl2, 2 mM DTT, 0.01% NP-40, 20 mM Na2MoO4) or 50 mM Tris, pH 7.5, 10 mM Mg(OAc)2. […] Vacuum filtration was performed with an Amersham Pharmacia Biotech (Piscataway, N.J.) vacuum filtration manifold.
Filters were rapidly washed with 3×4 ml of ice cold 50 mM Tris, pH 7.5, placed in 5 ml of scintillation fluid (SAFETYSOLVE™, RPI of Mt. Prospect, Ill.), vortexed, and counted by liquid scintillation spectrometry. […] All binding reactions were performed in triplicate and corrected by subtraction of background values, determined in binding reactions lacking GRP94.

The subject of the next experiment is BiP. The experiment can be described thus: [3H]-NECA binding assay (vacuum filtration). More on the design: species or system porcine. The conditions noted are these: 20 nM [3H]-NECA, 60 min on ice.
Experiment [2] deals with T1, GRP94. The experiment can be described thus: Isothermal titration calorimetry. The class given is binding, porcine. The procedure: Isothermal Titration Calorimetry. Isothermal calorimetry experiments were performed at 25° C. using a MSC calorimeter (MicroCal Inc. of Northampton, Mass.). […] The reaction chamber (1.3 mL) contained 5 μM GRP94. Necessary corrections were made by subtracting the heats of dilution resulting from buffer addition to protein solution and ligand solution into buffer.
In general terms: ITC needs no label: the signal is the heat of the interaction.

For experiment [3], the target named is T1, GRP94. The experiment can be described thus: [3H]-NECA competitive displacement assay. The class given is binding, porcine. The conditions noted are these: 10 mM Mg(OAc)2 versus nominal magnesium. The procedure:
as §1
All binding reactions were performed in triplicate and corrected by subtraction of background values, determined in binding reactions lacking GRP94.

The target in experiment [4] is T1, GRP94. The experiment can be described thus: GRP94 autophosphorylation assay. Particulars: 180 μM NECA or radicicol in 3.6% DMSO, 5 μg/ml heparin, 5 mM GTP. It is filed as biochemical, porcine. The procedure:
(§2) Phosphorylation Assays. To assay for GRP94 autophosphorylation, 1 μM GRP94 was incubated with γ-[^32P]ATP (6000 cpm/pmol) (Amersham Pharmacia Biotech of Piscataway, N.J.), diluted with cold ATP to yield a final concentration of 0.15 mM ATP in a buffer containing 10 mM Mg(OAc)2 and 50 mM K-Hepes, pH 7.4. For the casein kinase assay, 1 unit of casein kinase II was incubated as described above, with the addition of 4 μM casein. […] The 25 μl reaction mixtures were incubated at 37° C. for 1 hour and quenched by addition of 10% trichloroacetic acid. Samples were analyzed by 10% SDS-PAGE gels and the phosphorylated species were quantitated using a Fuji MACBAS1000™ phosphorimaging system (Fuji Medical Systems of Stamford, Conn.).

In a further experiment the target is casein kinase II (Homo sapiens, UniProt P68400). The experiment in a line: Casein kinase assay. The class given is biochemical. The conditions noted are these: 180 μM NECA or radicicol in 3.6% DMSO, 5 μg/ml heparin, 5 mM GTP; 4 μM casein. The procedure: as §2
Experiment [5] deals with T1, GRP94. The experiment can be described thus: ATPase assay (HPLC of ATP/ADP). The class given is biochemical, porcine. The procedure: ATPase Assay. 100 μl reactions consisting of 1 μM GRP94 monomer, various concentrations of MgATP (pH 7.0), and 50 mM K-Hepes, pH 7.4, were incubated for two hours at 37° C. Samples were then spun through a CENTRICON®-30 (Amicon of Beverly, Mass.) at 10,000 rpm, 4° C. to separate protein from nucleotide. A final concentration of 50 mM (NH4)2HPO4, pH 7.0, and 4 μM AMP, pH 7.0, was added to dilutions of the above samples and centrifuged at 15,200 rpm for 5 minutes at 4° C. 100 μL of supernatant was then fractionated on a […]™ SAX column (Alltech of Deerfield, Ill.), using a Series 1050 Hewlett Packard HPLC system. Elution of nucleotides was performed by step gradient elution using a mobile phase of 150 mM (NH4)2HPO4, pH 5.2, at 1.2 ml/min for the first ten minutes, followed by 300 mM (NH4)2HPO4, pH 5.2, at a flow rate of 2 ml/min for the remainder of the elution. In this protocol, ADP and ATP were well resolved, with ADP eluting at 7 minutes and ATP at 12 minutes. Peak height values were used in calculations of percent hydrolysis and ADP formation. Spontaneous hydrolysis was determined for each ATP concentration in paired incubations lacking GRP94. The AMP was used as an internal reference standard to control for equivalent sample loading.

The target in experiment [6] is T1, GRP94. The experiment can be described thus: Tryptophan fluorescence (tertiary conformational state). The class given is biochemical, porcine. The conditions noted are these: 50 μM NECA, 50 μM geldanamycin, 2.5 mM ATP or 2.5 mM ADP; 1 h 37° C. The procedure:
Tryptophan Fluorescence. Tryptophan fluorescence measurements were conducted in a FLUOROMAX™ spectrofluorometer (Spex Industries, Inc. of Edison, N.J.) with the slit widths set to 1 nm for both excitation and emission. […] All spectra were corrected by subtraction of buffer or buffer plus ligand samples. GRP94 (50 μg/ml) was incubated in buffer A supplemented with 10 mM Mg(OAc)2 and the following concentrations of ligands for 1 hour at 37° C. […] Samples were then cooled to room temperature, transferred to a quartz cuvette, and the spectra collected.

From patent US7691969B2, “Isolated GRP94 ligand binding domain polypeptide and nucleic acid encoding same, crystalline form of same, and screening methods employing same” (Duke University, priority 2001, dated 2010) come the findings set out here.

T1 sequence (Q29092 22-804): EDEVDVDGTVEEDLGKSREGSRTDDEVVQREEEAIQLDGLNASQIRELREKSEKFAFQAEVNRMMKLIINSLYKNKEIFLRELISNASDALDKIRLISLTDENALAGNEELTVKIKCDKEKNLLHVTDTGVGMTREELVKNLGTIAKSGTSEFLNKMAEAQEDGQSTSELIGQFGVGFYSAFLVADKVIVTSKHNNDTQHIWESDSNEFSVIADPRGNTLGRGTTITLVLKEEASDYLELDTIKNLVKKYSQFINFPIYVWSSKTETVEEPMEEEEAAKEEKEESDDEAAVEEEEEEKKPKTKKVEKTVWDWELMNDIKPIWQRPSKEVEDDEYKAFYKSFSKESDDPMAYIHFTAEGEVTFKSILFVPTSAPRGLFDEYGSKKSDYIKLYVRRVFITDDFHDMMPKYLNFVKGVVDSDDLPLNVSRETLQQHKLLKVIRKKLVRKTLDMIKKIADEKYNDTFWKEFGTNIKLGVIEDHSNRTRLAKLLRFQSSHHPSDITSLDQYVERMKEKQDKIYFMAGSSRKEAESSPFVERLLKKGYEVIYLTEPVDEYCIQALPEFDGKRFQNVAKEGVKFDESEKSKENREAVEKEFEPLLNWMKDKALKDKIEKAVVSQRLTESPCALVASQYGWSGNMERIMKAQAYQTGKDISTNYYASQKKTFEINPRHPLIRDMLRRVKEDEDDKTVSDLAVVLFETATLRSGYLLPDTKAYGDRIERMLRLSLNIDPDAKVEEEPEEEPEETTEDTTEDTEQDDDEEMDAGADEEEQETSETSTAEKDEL
casein kinase II, sequence (P68400 whole entry): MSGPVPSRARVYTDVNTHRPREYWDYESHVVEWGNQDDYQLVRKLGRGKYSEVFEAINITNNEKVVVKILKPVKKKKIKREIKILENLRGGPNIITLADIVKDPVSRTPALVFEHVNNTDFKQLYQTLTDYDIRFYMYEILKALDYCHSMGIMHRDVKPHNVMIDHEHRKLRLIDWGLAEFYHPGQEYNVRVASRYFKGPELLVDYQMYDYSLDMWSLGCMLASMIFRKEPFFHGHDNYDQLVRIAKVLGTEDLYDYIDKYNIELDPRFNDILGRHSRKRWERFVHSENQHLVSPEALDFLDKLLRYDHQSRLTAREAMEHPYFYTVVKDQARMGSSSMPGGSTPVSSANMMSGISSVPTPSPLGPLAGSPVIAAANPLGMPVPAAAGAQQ
casein kinase II, sequence (P67870 whole entry partner): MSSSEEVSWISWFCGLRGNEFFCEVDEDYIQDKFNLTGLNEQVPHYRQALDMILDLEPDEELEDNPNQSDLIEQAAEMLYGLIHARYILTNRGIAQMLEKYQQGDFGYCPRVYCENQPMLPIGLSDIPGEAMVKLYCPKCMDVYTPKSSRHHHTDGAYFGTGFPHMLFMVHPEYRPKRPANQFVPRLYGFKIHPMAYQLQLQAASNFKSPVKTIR

For `CCNC(=O)[C@H]1O[C@@H](n2cnc3c(N)ncnc32)[C@H](O)[C@@H]1O` [NECA, N-ethylcarboxamidoadenosine], the “slope of Hill plot” value on GRP94 [1] is on record as 1.2. Also, the “[3H]-NECA binding activity” value was “displayed readily detectable [^3H]-NECA binding activity” on GRP94 [1] (20 nM [3H]-NECA, 60 min on ice) and “[^3H]-NECA binding was not observed for Hsp90 or BiP” in the experiment on BiP. Moreover, the “maximal binding stoichiometry (saturation curve)” value at GRP94 [1] (FIG. 9B) is listed as 1 molecule of NECA per molecule of GRP94 dimer. Moreover, the binding stoichiometry on GRP94 [1] (radioligand filtration) was 0.5 mol [^3H]-NECA/mol GRP94 monomer. For the same molecule, the “binding stoichiometry at saturation (summary of ligand binding studies and calorimetry)” value on GRP94 [2] was 1 mol NECA:mol GRP94 dimer. Also, the “binding stoichiometry by isothermal titration calorimetry” value at GRP94 [2] (5 μM GRP94, 152 μM NECA stock, 25° C.) came out at 1.1 mol NECA/mol GRP94 dimer. Further, at GRP94 [3], the “effect of excess Mg2+ on binding to GRP94” value is given as “without effect on the binding of NECA or adenosine to GRP94”. Besides, the “inhibition of GRP94 autophosphorylation (GRP94-derived kinase) activity” value on GRP94 [4] is listed as “neither NECA nor radicicol, both of which bind to the N-terminal nucleotide binding domain of GRP94, significantly inhibit GRP94 derived or casein kinase II activity below the solvent background”. The “inhibition of casein kinase II activity” value at casein kinase II is listed as “neither NECA nor radicicol, both of which bind to the N-terminal nucleotide binding domain of GRP94, significantly inhibit GRP94 derived or casein kinase II activity below the solvent background”. Moreover, the “inhibition of GRP94 ATPase activity” value at GRP94 [5] is given as “sensitive to inhibition by NECA”. Also, on GRP94 [6], the “change of GRP94 tryptophan fluorescence” value was “increased the tryptophan fluorescence”.
